What was measured:
[1] = test system: VIOTR; assay: Pre-emergence herbicidal action against VIOTR; format: in vivo, Viola tricolor; details: 320 g/ha
Excerpt: (§1) Seeds of monocotyledonous and dicotyledonous weed plants and crop plants are laid out in sandy loam soil in wood-fiber pots and covered with soil. The compounds of the invention, formulated in the form of wettable powders (WP) or as emulsion concentrates (EC), are then applied to the surface of the covering soil as aqueous suspension or emulsion at a water application rate equating to 600 to 800 L/ha with addition of 0.2% wetting agent.
(§2) After the treatment, the pots are placed in a greenhouse and kept under good growth conditions for the trial plants. The damage to the test plants is scored visually after a test period of 3 weeks by comparison with untreated controls (herbicidal activity in percent (%): 100% activity=the plants have died, 0% activity=like control plants).

[2] = test system: SETVI; assay: Post-emergence herbicidal action against SETVI; format: in vivo, Setaria viridis; details: 80 g/ha, visual assessment about 3 weeks after treatment vs untreated controls
Description: (§3) Seeds of monocotyledonous and dicotyledonous weed and crop plants are laid out in sandy loam soil in wood-fiber pots, covered with soil and cultivated in a greenhouse under good growth conditions. 2 to 3 weeks after sowing, the test plants are treated at the one-leaf stage. The compounds of the invention, formulated in the form of wettable powders (WP) or as emulsion concentrates (EC), are then sprayed onto the green parts of the plants as aqueous suspension or emulsion at a water application rate equating to 600 to 800 l/ha with addition of 0.2% wetting agent. After the test plants have been left to stand in the greenhouse under optimal growth conditions for about 3 weeks, the action of the preparations is assessed visually in comparison to untreated controls (herbicidal action in percent (%): 100% activity=the plants have died, 0% activity=like control plants).

[3] = test system: ECHCG; assay: Post-emergence herbicidal action against ECHCG; format: in vivo, Echinochloa crus-galli; details: 80 g/ha, visual assessment about 3 weeks after treatment vs untreated controls
Description: as §3

[4] = test system: LOLRI; assay: Pre-emergence herbicidal action against LOLRI (Table 8, titled post-emergence at 320 g/ha); format: in vivo, Lolium rigidum; details: table stands in the pre-emergence section
Excerpt: as §1, §2

[5] = test system: DIGSA; assay: Post-emergence herbicidal action against DIGSA; format: in vivo, Digitaria sanguinalis; details: 80 g/ha, visual assessment about 3 weeks after treatment vs untreated controls
Description: as §3

[6] = test system: ALOMY; assay: Post-emergence herbicidal action against ALOMY; format: in vivo, Alopecurus myosuroides; details: 80 g/ha, visual assessment after about 3 weeks
Description: as §3

[7] = test system: ALOMY; assay: Pre-emergence herbicidal action against ALOMY; format: in vivo, Alopecurus myosuroides; details: 320 g/ha, scored visually after 3 weeks vs untreated controls
Excerpt: as §1, §2

[8] = test system: LOLRI; assay: Post-emergence herbicidal action against LOLRI; format: in vivo, Lolium rigidum; details: 80 g/ha, visual assessment about 3 weeks after treatment vs untreated controls
Description: as §3

[9] = test system: SETVI; assay: Pre-emergence herbicidal action against SETVI; format: in vivo, Setaria viridis; details: 320 g/ha, scored visually after 3 weeks vs untreated controls
Excerpt: as §1, §2

[10] = test system: AVEFA; assay: Pre-emergence herbicidal action against AVEFA; format: in vivo, Avena fatua; details: 320 g/ha, scored visually after 3 weeks vs untreated controls
Excerpt: as §1, §2

[11] = test system: ECHCG; assay: Pre-emergence herbicidal action against ECHCG; format: in vivo, Echinochloa crus-galli; details: 320 g/ha, scored visually after 3 weeks vs untreated controls
Excerpt: as §1, §2

[12] = test system: DIGSA; assay: Pre-emergence herbicidal action against DIGSA; format: in vivo, Digitaria sanguinalis; details: 320 g/ha, scored visually after 3 weeks vs untreated controls
Excerpt: as §1, §2

[13] = test system: AVEFA; assay: Post-emergence herbicidal action against AVEFA; format: in vivo, Avena fatua; details: 80 g/ha, visual assessment after about 3 weeks
Description: as §3

[14] = test system: AMARE; assay: Pre-emergence herbicidal action against AMARE; format: in vivo, Amaranthus retroflexus; details: 320 g/ha
Excerpt: as §1, §2

CC#Cc1cc(C)c(C2=C(O)C3(CCC(COCC)C3)NC2=O)c(Br)c1 (stereo not shown) [Example I-20]
100%: Pre-emergence action against VIOTR in % [1] | Post-emergence action against SETVI in % [2] | Post-emergence action against ECHCG in % [3] | Pre-emergence herbicidal action against LOLRI in % [4] | Post-emergence action against ALOMY in % [6] | Pre-emergence action against ALOMY in % [7] | Post-emergence action against LOLRI in % [8] | Pre-emergence action against SETVI in % [9] | Pre-emergence action against AVEFA in % [10] | Pre-emergence action against ECHCG in % [11] | Pre-emergence action against DIGSA in % [12]
90%: Post-emergence action against DIGSA in % [5]

CC#Cc1cc(C)c(C2=C(O)C3(CCC(COC)C3)NC2=O)c(OC)c1 (stereo not shown) [Example I-33]
80%: Pre-emergence action against AVEFA in % [10]
100%: Pre-emergence action against VIOTR in % [1] | Post-emergence action against SETVI in % [2] | Post-emergence action against ECHCG in % [3] | Pre-emergence herbicidal action against LOLRI in % [4] | Post-emergence action against DIGSA in % [5] | Post-emergence action against AVEFA in % [13] | Post-emergence action against ALOMY in % [6] | Pre-emergence action against ALOMY in % [7] | Post-emergence action against LOLRI in % [8] | Pre-emergence action against SETVI in % [9] | Pre-emergence action against DIGSA in % [12]

C=CCOCC1CCC2(C1)NC(=O)C(c1c(C)cc(C#CC)cc1OC)=C2O (stereo not shown) [Example I-45]
80%: Pre-emergence action against VIOTR in % [1] | Post-emergence action against AVEFA in % [13] | Pre-emergence action against ALOMY in % [7]
100%: Post-emergence action against SETVI in % [2] | Post-emergence action against ECHCG in % [3] | Pre-emergence herbicidal action against LOLRI in % [4] | Pre-emergence action against SETVI in % [9] | Pre-emergence action against ECHCG in % [11] | Pre-emergence action against DIGSA in % [12]
90%: Post-emergence action against DIGSA in % [5] | Post-emergence action against ALOMY in % [6]

C=CCOCC1CCC2(C1)NC(=O)C(c1c(F)cc(C#CC)cc1OC)=C2O (stereo not shown) [Example I-55]
80%: Pre-emergence action against AMARE in % [14]
100%: Post-emergence action against SETVI in % [2] | Post-emergence action against ECHCG in % [3] | Pre-emergence herbicidal action against LOLRI in % [4] | Post-emergence action against ALOMY in % [6] | Pre-emergence action against ALOMY in % [7] | Pre-emergence action against SETVI in % [9] | Pre-emergence action against ECHCG in % [11] | Pre-emergence action against DIGSA in % [12]
90%: Post-emergence action against AVEFA in % [13]

C#CCOCC1CCC2(C1)NC(=O)C(c1c(C)cc(C#CC)cc1OC)=C2O (stereo not shown) [Example I-76]
100%: Post-emergence action against SETVI in % [2] | Post-emergence action against ECHCG in % [3] | Pre-emergence herbicidal action against LOLRI in % [4] | Pre-emergence action against ALOMY in % [7] | Pre-emergence action against SETVI in % [9] | Pre-emergence action against ECHCG in % [11] | Pre-emergence action against DIGSA in % [12]
90%: Pre-emergence action against VIOTR in % [1] | Post-emergence action against DIGSA in % [5] | Post-emergence action against AVEFA in % [13] | Post-emergence action against ALOMY in % [6] | Post-emergence action against LOLRI in % [8]

CC#Cc1cc(Br)c(C2=C(OC(=O)C(C)C)C3(CCC(COCC)C3)NC2=O)c(CC)c1 (stereo not shown) [Example P-43]
100%: Pre-emergence action against VIOTR in % [1]
